Source: patent US20260364057A1, “AMIDE COMPOUND, AND COMPOSITION AND USE THEREOF” (SIMCERE ZAIMING PHARMACEUTICAL CO., LTD., priority 2022, published 2026)

Assays:
Human KIF18A (1-376aa) = molecular target: T1, Human KIF18A (1-376aa) (Homo sapiens, UniProt Q8NI77); assay: KIF18A enzyme activity assay (ADP-Glo); format: biochemical; conditions: microtubule 50 μg/mL, ATP (Km 70 μM), room temperature, 15 min, read-out: KIF18A inhibitory activity IC50
T1 construct: Human KIF18A (1-376aa) protease used in the experiments; purchased Shanghai Panchao Biotechnology Co., Ltd
T1 sequence (Q8NI77 1-376): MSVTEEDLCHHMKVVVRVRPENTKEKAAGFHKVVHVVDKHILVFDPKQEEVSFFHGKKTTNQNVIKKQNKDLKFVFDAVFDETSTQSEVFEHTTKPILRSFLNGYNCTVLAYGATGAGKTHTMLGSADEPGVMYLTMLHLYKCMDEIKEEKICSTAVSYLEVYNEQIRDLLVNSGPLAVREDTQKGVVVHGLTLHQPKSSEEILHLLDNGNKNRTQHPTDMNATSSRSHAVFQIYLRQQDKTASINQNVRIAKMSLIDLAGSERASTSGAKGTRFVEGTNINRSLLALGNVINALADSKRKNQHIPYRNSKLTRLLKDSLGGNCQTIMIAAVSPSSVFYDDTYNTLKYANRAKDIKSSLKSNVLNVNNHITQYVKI

OVCAR3 cells = assay: Inhibition of proliferation of OVCAR-3 cells (Cell-Titer Glo); format: cell-based; conditions: Homo sapiens, OVCAR-3, 72 h, 3 days, 1000 cells/well
Source text: Test Example 2. Test on Inhibition of Proliferation of OVCAR-3 Cells by Compounds of Present Disclosure
Cell and material: The human ovarian cancer cell line OVCAR3 was purchased from ATCC (Cat. No. HTB-161™), RPMI 1640 medium (Gibco #A1049101), penicillin-streptomycin (Gibco #15140122), and 0.25% Trypsin-EDTA (Gibco #25200056) were purchased from Gibco (U.S.), bovine insulin (Yeasen #40107ES60) was purchased from Yeasen, 384-well plates (Corning #CLS3765) was purchased from Corning (U.S.), and Cell-Titer Glo reagent (Promega #G7568) was purchased from Promega (U.S.).
Cell culture: OVCAR3 cells were cultured in RPMI 1640 complete medium (RPMI 1640 medium containing 20% fetal bovine serum, […] bovine insulin, and 1% penicillin-streptomycin) in an incubator (37 °C, 5% CO2), and the cells could be used in experiments when in the logarithmic growth phase.
Cell proliferation activity test: The Cell-Titer Glo reagent was used to test the compound for inhibition of proliferation of the OVCAR3 cell strain. The compound formulated with DMSO and pure DMSO (control) were each added to a 384-well plate using an Echo instrument; the compound was subjected to 3-fold serial dilution starting from 30 μM to obtain 11 concentration points, and the volume of the compound or DMSO added was 100 nL.
OVCAR3 cells were digested and resuspended in RPMI 1640 complete medium, and the suspension was added to a 384-well plate (1000 cells/50 μL/well) to be well mixed with the compound. The mixture was incubated in an incubator (37 °C, 5% CO2) for 3 days. The Cell-Titer Glo reagent was added at 25 µL/well, and the resulting mixture was well mixed by shaking and then incubated for 10 min. The Cell-Titer Glo readings were measured with a Multimode Plate Reader (brand: PerkinElmer; model: SIC-PV-018).
A negative control group (Bottom) was set, and the negative control group was medium wells with 0.2% DMSO added and was defined as 100% proliferation inhibition; the positive control group (Top) was OVCAR3 cell wells with 0.2% DMSO added.
The percent proliferation inhibition (% Inhibition) was calculated, and the curves were fit using the four-parameter equation, Y=Bottom+(Top−Bottom)/(1+(IC50/X)^HillSlope), to obtain the proliferation inhibition IC50 of the compound. • Percent inhibition: % Inhibition=(1−(Signal−Bottom)/(Top−Bottom))×100%. • Signal: Cell-Titer Glo reading of wells with compound added; • Bottom: Cell-Titer Glo reading of negative control wells; • Top: Cell-Titer Glo reading of positive control wells.

Row | IC50 (Human KIF18A (1-376aa)) [µM] | IC50 (OVCAR3 cells) [µM] | SMILES
1 | < 0.2 | 0.0107 | O=C(Nc1cc2c(c(N3CC4C(C3)C4(F)F)c1)OCC2)c1ccc(NS(=O)(=O)CCO)cc1N1CCC2(CC1)CC2 (stereo not shown) [Compound 114]
2 | < 0.2 | 0.023 | O=C(Nc1cccc2c1cc1n2CCCCC1)c1ccc(NS(=O)(=O)CCO)cc1N1CCC2(CC1)CC2 [Compound 115]
